Literature values in patent publication EP4759820A1, “METHOD FOR PRODUCING PEPTIDE COMPOUND USING STAND-ALONE-TYPE CONDENSING AGENT” (CHUGAI SEIYAKU KABUSHIKI KAISHA, priority 2023, dated 2025).

conditions: conjugate acid of the base; water as solvent, 25°C; literature reference given with each value

Row | pKa | Structure (SMILES)
1 | 7.38 | CN1CCOCC1 [N-methylmorpholine]

same assay, conditions: representative additives; water as solvent, 25°C; literature reference given with each value

Row | pKa | Structure (SMILES)
2 | 8.2 | ON=c1[nH]cc[nH]1 [1,3-Dihydro-2H-imidazol-2-one oxime]
3 | 7.4 | CN(C)[S+]([O-])C(=NO)c1ccccc1 (stereo not shown) [1-(Hydroxyimino)-N,N-dimethyl-1-phenylmethanesulfinamide]
4 | 8.7 | NC(=O)C(=NO)c1nccs1 [2(Hydroxyimino)-2-(thiazol-2-yl)acetamide]
5 | 5.6 | C[n+]1ccccc1C(=NO)c1ccccn1.[I-] [2-((Hydroxyimino)(pyridin-2-yl)methyl)-1-methylpyridin-1-iumiodide]
6 | 9.4 | NC(=O)C(=NO)c1ccco1 [2-(Furan-2-yl)-2-(hydroxyimino)acetamide]
7 | 9.4 | NC(=O)C(=NO)c1ccc[nH]1 [2-(Hydroxyimino)-2-(1H-pyrrol-2-yl)acetamide]
8 | 9.4 | NC(=O)C(=NO)c1cnccn1 [2-(Hydroxyimino)-2-(pyrazin-2-yl)acetamide]
9 | 9.4 | NC(=O)C(=NO)c1ncccn1 [2-(Hydroxyimino)-2-(pyrimidin-2-yl)acetamide]
10 | 10.5 | NC(=S)C(=NO)c1ncccn1 [2-(Hydroxyimino)-2-(pyrimidin-2-yl)ethanethioamide]
11 | 9.4 | NC(=O)C(=NO)c1cccs1 [2-(Hydroxyimino)-2-(thiophen-2-yl)acetamide]
12 | 9.4 | C#CC(=NO)C(N)=O [2-(Hydroxyimino)but-3-ynamide]
13 | 9.4 | CN1C(=O)C(=NO)c2ccccc21 [3-(Hydroxyimino)-1-methylindolin-2-one]
14 | 11.1 | ON=C1c2ccccc2-c2ccccc21 [9H-Fluoren-9-one oxime]
15 | 12.1 | CC(=NO)C(C)=NO [Butane-2,3-dionedioxime]
16 | 9.4 | CCOC(=O)C(=NO)c1cnccn1 [Ethyl 2-(hydroxyimino)-2-(pyrazin-2-yl)acetate]
17 | 9.6 | CCOC(=O)C(=NO)c1ccccn1 [Ethyl 2-(hydroxyimino)-2-(pyridine-2-yl)acetate]
18 | 9.6 | CCOC(=O)C(=NO)c1ccncc1 [Ethyl 2-(hydroxyimino)-2-(pyridine-4-yl)acetate]
19 | 9.6 | CCOC(=O)C(=NO)c1ncccn1 [Ethyl 2-(hydroxyimino)-2-(pyrimidin-2-yl)acetate]
20 | 9.6 | CCOC(=O)C(=NO)c1ccc[nH]1 [Ethyl 2-(hydroxyimino)-(1H-pyrrol-2-yl)acetate]
21 | 7.7 | O=C1CCC(=O)N1O [HOSu, 1-Hydroxypyrrolidine-2,5-dione]
22 | 8.2 | N#CC(=NO)c1ccccc1 [Hydroxyimino-2-phenylacetonitrile]
23 | 12.5 | ON=C1NCCN1 [Imidazolidin-2-one oxime]
24 | 12.5 | NC(=NO)c1cnccn1 [N'-Hydroxypyrazine-2-carboximidamide]
25 | 7.6 | O=[N+]([O-])C(=NO)c1ccccc1 [Nitro(phenyl)methanone oxime]
26 | 6.6 | ON=c1[nH]cco1 [Oxazol-2(3H)-one oxime]
27 | 12.5 | ON=C1NCCO1 [Oxazolidin-2-one oxime]

Continued, molecule first:

Row | Structure (SMILES) | pKa
28 | O=[N+]([O-])C(CCc1ccccc1)=NO [1-Nitro-3-phenylpropan-1-oneoxime] | 7.4
29 | CS(=O)(=O)C(=NO)C(N)=O [2-(Hydroxyimino)-2-(methylsulfonyl)acetamide] | 9.4
30 | NC(=O)C(=NO)C(N)=O [2-(Hydroxyimino)malonamide] | 9.4
31 | O=C1C(=NO)c2ccccc2N1c1ccccc1 [3-(Hydroxyimino)-1-phenylindoline-2-one] | 9.0
32 | CS(=O)(=O)C(=NO)[S+](N)[O-] (stereo not shown) [(Hydroxyimino)(methylsulfonyl)methanesulfinamide] | 9.4
33 | ON=C1c2ccccc2C(=NO)c2ccccc21 [Anthracene-9,10-dionedioxime] | 7.1
34 | CCOC(=O)C(NO)C(=O)OCC [Diethyl 2-(hydroxyamino)malonate] | 7.2
35 | CC(C)OC(=O)C(=NO)C(=O)OC(C)C [Diisopropyl 2-(hydroxyimino)malonate] | 7.2
36 | CCOC(=O)C(=NO)c1ccco1 [Ethyl 2-(furan-2-yl)-2-(hydroxyimino)acetate] | 9.6
37 | CCOC(=O)C(NO)[N+](=O)[O-] (stereo not shown) [Ethyl 2-(hydroxyamino)-2-nitroacetate] | 4.7
38 | CCOC(=O)C(=NO)S(=O)(=O)C(F)(F)F [Ethyl 2-(hydroxyimino)-2-((trifluoromethyl)sulfonyl)acetate] | 4.2
39 | CCOC(=O)C(=NO)c1cccs1 [Ethyl 2-(hydroxyimino)-2-(thiophen-2-yl)acetate] | 9.6
40 | CCOC(=O)C(=NO)S(N)(=O)=O [Ethyl 2-(hydroxyimino)-2-sulfamoylacetate] | 5.8
41 | C#CC(=NO)C(=O)OCC [Ethyl 2-(hydroxyimino)but-3-ynoate] | 9.6
42 | O=c1c2ncccc2ncn1O [HODhad, 3-Hydroxypyrido[3,2-d]pyrimidin-4(3H)-one] | 5.8
43 | O=C1Cc2ccccc2N1O [HOI, 1-Hydroxyindolin-2-one] | 8.3
44 | NC(=O)C(NO)C(=O)N(O)O (stereo not shown) [N',N'-Dihydroxy-2-(hydroxyamino)malonamide] | 7.7
45 | CCOC(=O)C(C#N)=NO [oxyma, ethyl 2-cyano-2-(hydroxyimino)acetate] | 4.60
46 | CC(C)(C)OC(=O)C(C#N)=NO [tert-Butyl 2-cyano-2-(hydroxyimino)acetate] | 4.60
